Measurements: ChEMBL document CHEMBL5726136, “Heterocyclic compounds and methods for their use” (2017)

molecular target: T1, Type-2 angiotensin II receptor (Homo sapiens, UniProt P50052); test: Receptor Binding Assay: 120 μL membrane (5 mg protein/well) was incubated with 15 μL of [125I]-CGP42112A and 15 μL of compound at RT for 1.5 hrs.The binding reaction was stopped by rapid filtration through Unifilter GF/C plates (presoaked in 0.3% (v:v) BSA).Plate was washed three times with ice cold wash buffer.The filtration plates were dried at 37° C. overnight.50 μL of scintillation cocktail was added to each well.Radioactivity was determined using MicroBetaTriluxmicroplate scintillation counter.
T1 sequence (P50052 whole entry): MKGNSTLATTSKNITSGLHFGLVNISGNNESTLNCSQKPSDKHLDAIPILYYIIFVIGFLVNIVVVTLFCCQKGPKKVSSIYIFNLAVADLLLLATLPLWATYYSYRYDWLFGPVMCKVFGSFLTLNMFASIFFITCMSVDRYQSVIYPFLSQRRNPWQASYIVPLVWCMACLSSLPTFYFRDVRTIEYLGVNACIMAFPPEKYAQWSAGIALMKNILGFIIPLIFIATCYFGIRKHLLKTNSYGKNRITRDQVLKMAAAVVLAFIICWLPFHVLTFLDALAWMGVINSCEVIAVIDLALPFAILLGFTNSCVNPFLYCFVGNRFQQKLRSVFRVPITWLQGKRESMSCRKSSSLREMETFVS

In order of rising IC50:
1. O=C(O)[C@@H]1C[C@H](OCc2ccccc2)CCN1C(=O)C(c1ccccc1)c1ccccc1  76.7 nM
2. CC(C)C#CCN(C)[C@@H]1CCN(C(=O)C(c2ccccc2)c2ccccc2)[C@H](C(=O)O)C1  153 nM
3. O=C(O)[C@@H]1C[C@H](OCC#Cc2ccc(F)cc2)CCN1C(=O)C(c1ccccc1)c1ccccc1  228 nM
4. CC(C)C#CCN(C)[C@H]1CCN(C(=O)C(c2ccccc2)c2ccccc2)[C@H](C(=O)O)C1  354 nM
